Measured values as given in patent US5563142A, “Diaromatic substituted compounds as anti-HIV-1 agents” (The Upjohn Company, priority 1994, dated 1996).
Where a name gives a salt, the structure may show the parent alone.

Key:
[1] = system: HIV-1 (MT-2 cells infected with HIV-1); test: Inhibition of HIV-induced syncytia formation in MT-2 cells; format: cell-based; conditions: for IC50: Human immunodeficiency virus 1, MT2, MT-2 cells infected with HIV-1, read-out: INHIBITION OF SYNCYTIA FORMATION ED50
Source text: This test is described in Quantitative Infectivity Assay for HIV-1 and -2., Nature 332: 469-470, 1988 as well as in AIDS RESEARCH AND HUMAN RETROVIRUSES, Vol. 4, No. 6, pages 449-455 (1988), Mary Ann Liebent, Inc., Publishers; in an article entitled "Nucleotide Dimers Suppress HIV Expression In VITRO". The results (IC50 means the concentration, in μM of drug, required to inhibit syncytia formation to the extent of 50%) of various assay(s) are combined and reported as % inhibition and IC50 (calculated).
ability of various compounds used to inhibit HIVinduced syncytia formatio
in a tissue culture assay using MT2 cells infected with HIV1. This test i
described by Nara et al., Quantitative infectivity assay for HIV1 and 2,
Nature 332, 469-470 (1988), as well as in AIDS RESEARCH AND HUMAN
RETROVIRUSES, vol. 4, No. 6, pages 449-455 (1988), Mary Ann Liebent, Inc.
Publishers, and in an article by Mariano Busso, et al., entitled
"Nucleotide Dimers Suppress HIV Expression In Vitro". The results
(ED50 means the concentration, in μM of drug, required to inhibit
syncytia formation to the extent of 50%) of various assay are combined an
reported in Table I. In comparison, the known commercial compound, AZT,
percent reductions in syncytia formation at concentrations of
approximately 1 μM and 0.5 μM, respectively.

[2] = system: HIV in primary human peripheral blood lymphocytes; test: Primary PBL assay: inhibition of viral replication (p24 & RNA); format: cell-based; conditions: Human immunodeficiency virus 1, Lymphocyte, primary human lymphocytes infected with HIV, days three and four, read-out: PBL INHIBITION OF VIRAL REPLICATION (p24 & RNA) ED50
Description: ^3 The utility of the compounds of the invention is further
infection in primary peripheral blood lymphocytes (primary PBL assay). Th
primary PBL assay offers the following advantages:
(a) The assays are performed with primary human lymphocytes. Thereby,
undesired testing of transformed cell lines is avoided in which host cell
and virus may have undergone processes of mutual adaptation. Performance
of cell culture in serum containing media closely mimics the in vivo
situation. (b) The primary PBL assay distinguishes between true antiviral
effect which is due to the drug and cytostatic/cytotoxic reactions. (c)
Viral replication is precisely followed by kinetic measurement of viral
nucleic acids and proteins. (d) Nucleic acids (total HIVRNA intra and
extracellular) and protein (secreted p24) are measured in parallel which
permits one to differentiate between the compound's effect on virus
replication and on the expression of viral proteins. This leads to
additional information regarding the efficacy of the test compound. (e)
Tolerance of the cell culture against low amounts of organic solvents als
permits the investigation of hydrophobic substances. (f) The dose of the
drug causing half maximal suppression of virus replication is determined.
(g) The screening system is standardized and automated to a high degree.
The primary PBL assay uses the following procedure:
Effects of the compounds of the invention on cell proliferation are determined by lymphocyte proliferation assays. Starting with a 100 micromolar solution, the compound is serially diluted 10 fold. One tenth of the concentration of a compound causing half maximal inhibition of cellular proliferation is employed for all subsequent testing.
Peripheral human lymphocytes are isolated by density gradient centrifugation. After stimulation by mitogen the cells are infected with a standardized preparation of HIV. Subsequently, the infected cells are cultured in the presence of the drug for four days. Individual cultures are established to measure viral replication three and four days following infection. Untreated cells and AZT-treated cells are included as controls in parallel with the drugs under investigation.
The amount of viral core protein p24 synthesized and release by the infected cells is determined in the supernatant by the capture-ELISA technique on days three and four. By comparing with a standard preparation, the amount of protein produced by the virus infected cells is quantified.
The total amount of viral RNA synthesized by the infected lymphocytes is determined by a special nucleic acid hybridization on days three and four of culture. By including a standard preparation of HIV-RNA the amount of synthesized RNA is quantified.
In addition, viability of HIV-infected cells is determined in parallel with assays for viral p24 and RNA. In order to evaluate the half maximal antiviral effect of the drug, a concentration dependency of the drug action is measured.
Numerous examples of the compounds of the invention are assayed according to this procedure. The anti-HIV activity, as measured by the inhibition of the release of core p24 protein in HIV infected human lymphocytes, is used to calculate ED50 -antiviral (the concentration required to give a 50% reduction in p24 synthesis).

[3] = target: T1, viral reverse transcriptase (Human immunodeficiency virus type 1 group M subtype B, UniProt P04585); test: Viral reverse transcriptase inhibition, cell free assay; format: biochemical, human immunodeficiency virus (HIV-1); conditions: read-out: RT % INHIBITION (100 μM), 100 μM; poly rC or poly rG template
T1 construct: Viral reverse transcriptase is found in extracts from bacterial clones; made in house; host or cells: Escherichia coli (extracts of bacterial clones, by the procedure of Larder et al., EMBO J. 6:3133-3137, 1987)
Summary of the method: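 E. coli-expressed HIV-1 RT extract was incubated with inhibitor, 10 μM [35S]-dNTP, poly rC/rG template and oligo dG/dT primer in Tris pH 8.3 with Mg2+ at 37 °C (30 min; 15 min in an alternative version). DNA incorporation was counted on filters and reported as % inhibition (at 100 μM in one version) and IC50.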

Structure (SMILES) | EC50 ([1]; Human immunodeficiency virus 1, MT2, read-out: concentration giving 50 percent reduction in syncytia formation) [µM] | IC100 ([1]; Human immunodeficiency virus 1, MT2, read-out: concentration giving 100 percent reduction in syncytia formation) [µM] | IC50 [1] [µM] | EC50 [2] [µM] | inhibition at 100 µM [3] [%]
Cc1cn([C@H]2C[C@H](N=[N+]=[N-])[C@@H](CO)O2)c(=O)[nH]c1=O [AZT, 3'-azido-3'-deoxy-thymidine, reference compound] | ~0.5 | ~1 |  |  | 
CCNc1cccnc1N1CCN(C(=O)c2cc(C)c(OC)c(C)c2)CC1 [Example 1, 1-[4-Methoxy-3,5-dimethylbenzoyl]-4-[3-(ethylamino)-2-pyridinyl]piperazine] |  |  | 10 | 1 | 60 to 79
CCNc1cccnc1N1CCN(Cc2cc(C)c(OC)c(C)c2)CC1 [Example 3, 1-[4-Methoxy-3,5-dimethylbenzyl]-4-[3-(ethylamino)-2-pyridinyl]piperazine] |  |  | 1 to 2.5 | 1 | 70 to 76
CCNc1cccnc1N1CCN(Cc2cc(C)c(O)c(C)c2)CC1 [Example 4, 1-[4-Hydroxy-3,5-dimethylbenzyl]-4-[3-(ethylamino)-2-pyridinyl]piperazine] |  |  | 2.5 | ≥ 10 | 58
CCCNc1cccnc1N1CCN(Cc2cc(C)c(OC)c(C)c2)CC1 [Example 5, 1-[4-Methoxy-3,5-dimethylbenzyl]-4-[3-(propylamino)-2-pyridinyl]-piperazine] |  |  | 2 |  | 39 to 42
CCOc1ccccc1N1CCN(C(=O)c2cc3ccccc3[nH]2)CC1 [Example 10, 1-[Indolyl-2-carbonyl]-4-[2-ethoxyphenyl]piperazine] |  |  | 5 | > 1 | 72 to 87
CCNc1cccnc1N1CCN(C(=O)c2cc3ccccc3[nH]2)CC1 [Example 11, 1-[Indolyl-2-carbonyl]-4-[3-(ethylamino)-2-pyridinyl]piperazine] |  |  | 0.3 to 3 | 0.01 to 0.1 | 95 to 98
CCOc1ccccc1N1CCN(C(=O)c2cc3cc(OC)ccc3[nH]2)CC1 [Example 12, 1-[5-Methoxyindolyl-2-carbonyl]-4-[2-ethoxyphenyl]piperazine] |  |  | < 0.3 | 5 to 10 | 64 to 80
CCNc1cccnc1N1CCN(C(=O)c2cc3cc(OC)ccc3[nH]2)CC1 [Example 16A, 1-[5-Methoxyindolyl-2-carbonyl]-4-[3-(ethylamino)-2-pyridinyl]-piperazine, hydrochloride] |  |  | < 0.2 | 0.001 | 
CC(C)Nc1cccnc1N1CCN(C(=O)c2cc3ccccc3[nH]2)CC1 [Example 17, 1-[Indolyl-2-carbonyl]-4-[3-(1-methylethylamino)-2-pyridinyl]piperazine] |  |  | ≤ 0.3 | ≤ 0.01 | 96
CCN(CC)c1cccnc1N1CCN(C(=O)c2cc3ccccc3[nH]2)CC1 [Example 19, 1-[Indolyl-2-carbonyl]-4-[3-(N,N-diethylamino)-2-pyridinyl]-piperazine] |  |  | 3 | 0.1 to 1 | 65 to 71
CCNc1cccnc1N1CCN(Cc2cc3ccccc3[nH]2)CC1 [Example 20, 1-[Indolyl-2-methyl]-4-[3-(ethylamino)-2-pyridinyl]piperazine] |  |  | 10 | 1 | 64
CCCNc1cccnc1N1CCN(C(=O)c2cc3cc(F)ccc3[nH]2)CC1 [Example 21, 1-[5-Fluoroindolyl-2-carbonyl]-4-[3-(propylamino)-2-pyridinyl]piperazine] |  |  | 1 | 0.01 to 1 | 44 to 74
CCNc1cccnc1N1CCN(C(=O)c2cc3cc(Cl)ccc3[nH]2)CC1 [Example 22, 1-[5-Chloroindolyl-2-carbonyl]-4-[3-(ethylamino)-2-pyridinyl]piprazine] |  |  | 0.3 to 5 | 0.01 | 76 to 82
CCNc1cccnc1N1CCN(C(=O)c2cc3cc(F)ccc3[nH]2)CC1 [Example 23, 1-[5-Fluoroindolyl-2-carbonyl]4-[3-(ethylamino)-2-pyridinyl]-piperazine] |  |  | < 0.3 | 0.003 to 0.01 | 92 to 95
CCNc1cccnc1N1CCN(C(=O)c2cc3cc(CC)ccc3[nH]2)CC1 [Example 24, 1-[5-Ethylindolyl-2-carbonyl]-4-[3-(ethylamino)-2-pyridinyl]piperazine] |  |  | 16 | 0.01 to 0.1 | 65 to 70
CC(C)Nc1cccnc1N1CCN(C(=O)c2cc3cc(F)ccc3[nH]2)CC1 [Example 25, 1-[5-Fluoroindolyl-2-carbonyl]-4-[3-(1-methylethylamino)-2-pyridinyl]piperazine] |  |  | 0.3 to 0.4 | 0.003 | 96
COc1ccc2[nH]c(C(=O)N3CCN(c4ncccc4NC(C)C)CC3)cc2c1 [Example 26, 1-[5-Methoxyindolyl-2-carbonyl]-4-[3-(1-methylethylamino)-2-pyridinyl]piperazine] |  |  | 0.3 to 0.5 | 0.003 | 97
CCNc1cccnc1N1CCN(C(=O)c2cc3ccccc3o2)CC1 [Example 27, 1[Benzofuroyl-2-carbonyl]-4-[3-(ethylamino) -2-pyridinyl]piperazine] |  |  | > 0.001 | 10 | 37 to 57
CCNc1ccccc1N1CCN(C(=O)c2cc3cc(OC)ccc3[nH]2)CC1 [Example 28, 1-[5-Methoxyindolyl-2-carbonyl]-4-[2-(ethylamino)phenyl]piperazine] |  |  | > 26 | 0.1 to 1 | 70
CCNc1ccccc1N1CCN(C(=O)c2cc3ccccc3[nH]2)CC1 [Example 29, 1-[Indolyl-2-carbonyl]-4-[2-(ethylamino)phenyl]piperazine] |  |  | 2.8 | 0.1 to 1 | 75 to 83
O=C(c1cc2ccccc2[nH]1)N1CCN(c2ncccc2NCC2CC2)CC1 [Example 31, 1-[Indolyl-2-carbonyl]-4-[3-(cyclopropylmethylamino)-2-pyridinyl]piperazine] |  |  | 3 | 0.1 to 1 | 65 to 71
CC(C)Nc1cccnc1N1CCN(Cc2cc3cc(F)ccc3[nH]2)CC1 [Example 32, 1-[5-Fluoroindolyl-2-methyl]-4-[3-(1-methylethylamino)-2-pyridinyl]piperazine] |  |  | < 0.3 | 0.003 to 0.01 | 96
CC(C)Nc1cccnc1N1CCN(C(=O)c2cc3ccc(F)cc3[nH]2)CC1 [Example 132] |  |  |  | 0.001 to 0.01 | 95 to 98
